Drawing on PubChem BioAssay (NCI), this text covers TGI for 17 molecules.

Structures are written as SMILES.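 Cells were grown in 96-well plates and exposed to each compound for 48 hours at five concentrations; endpoints were interpolated linearly between bracketing concentrations, or set to the highest concentration if not reached. TGI: total growth inhibition.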

The first experiment deals with SK-MEL-28 melanoma. The experiment can be described thus: NCI-60 cell line screen, 48 h.
Regarding `O=[N+]([O-])c1ccc2c(c1)c(OCc1ccccc1)nn2Cc1ccccc1`, the TGI is more than 100 µM.
Still for that read-out and setting: the value for `COc1cc2c(c(OC)c1OC)C(=O)[C@@H]1[C@H]2N1C(N)=O` was more than 100 µM.
Molecule `Cc1cc(Cc2cc(C)c(N)cc2N)c(N)cc1N` returned a TGI of more than 100 µM.
The same measure, in the same setting: the result for `C[C@]12CCC(O)CC1=CC[C@@H]1[C@@H]2CC[C@]2(C)C(=O)[C@H](n3ccnc3)C[C@@H]12` (some centres undefined) reads more than 100 µM.
The same measure, in the same setting: the result for `COC(=O)c1ccccc1CC1Cc2ccc3c(c2C1=O)CCCC3` (centres undefined) reads more than 100 µM; that for `CCOC(=O)C1(C/C=C/CBr)Cc2ccccc2C1=O` (centres undefined), 20.8 µM; that for `COc1ccc(COCCOCc2nc(C#N)c(N)o2)cc1`, more than 100 µM.
Still for that read-out and setting: the value for `N#Cc1c(N2CCCC2)ncn(-c2ccccc2)c1=O` was more than 100 µM; that for `CC1(C)OC(=O)N(c2ccccc2)C12C=Cc1cc([N+](=O)[O-])cc([N+](=O)[O-])c1O2` (centres undefined) was more than 100 µM.

The next experiment relates to HT29 colon. The experiment can be described thus: NCI-60 cell line screen, 48 h.
Take `NC(=O)NCCCC(NC(=O)OCCCCn1ccc(=O)[nH]c1=O)C(=O)O` (centres undefined): the TGI is more than 100 µM.
Molecule `CCOC(=O)C(SCCO)C(C(=O)OCC)n1cnc2c(=O)[nH]c(NC(C)=O)nc21` (centres undefined) had a TGI of more than 100 µM.
`Cc1ccc([N+](=O)[O-])cc1NC1=NCCO1` registered a TGI of more than 100 µM.
Same read-out and setting: the result for `Cc1ccc(C(=O)O)cc1S(=O)(=O)Nn1cnc2ccc(S(=O)(=O)Nc3ccccc3C(=O)O)cc2c1=O` reads more than 100 µM; that for `Cc1ccc(-c2n[nH]c(=O)n2N2C(=O)c3ccccc3C2=O)cc1`, more than 100 µM.
The molecule `S=C1Nc2ccccc2SC1c1ccccc1` (centres undefined) gave a TGI of more than 100 µM.
As for `CC(C)(C)OC(=O)NCCCCC1NC(=O)[C@@H]2Cc3c([nH]c4ccccc34)C(C3CCCCC3)N2C1=O` (some centres undefined), the TGI was more than 100 µM.
The same measure, in the same setting: the value for `CN(C)C(=O)O/N=C1/C(c2c(O)[nH]c3ccccc23)=Nc2ccccc21` was more than 100 µM; that for `O=[N+]([O-])c1ccc2c(c1)c(OCc1ccccc1)nn2Cc1ccccc1` was more than 100 µM.
The same measure, in the same setting: the result for `COc1cc2c(c(OC)c1OC)C(=O)[C@@H]1[C@H]2N1C(N)=O` reads more than 100 µM.
Take `Cc1cc(Cc2cc(C)c(N)cc2N)c(N)cc1N`: the TGI was more than 100 µM.
Take `C[C@]12CCC(O)CC1=CC[C@@H]1[C@@H]2CC[C@]2(C)C(=O)[C@H](n3ccnc3)C[C@@H]12` (some centres undefined): the TGI is more than 100 µM.
Turning to `COC(=O)c1ccccc1CC1Cc2ccc3c(c2C1=O)CCCC3` (centres undefined), the TGI is more than 100 µM.
On the same count and under the same terms, the value for `CCOC(=O)C1(C/C=C/CBr)Cc2ccccc2C1=O` (centres undefined) was 11.8 µM; that for `COc1ccc(COCCOCc2nc(C#N)c(N)o2)cc1` was more than 100 µM.
Still for that read-out and setting: the result for `N#Cc1c(N2CCCC2)ncn(-c2ccccc2)c1=O` reads more than 100 µM; that for `CC1(C)OC(=O)N(c2ccccc2)C12C=Cc1cc([N+](=O)[O-])cc([N+](=O)[O-])c1O2` (centres undefined), more than 100 µM.

A further experiment concerns K-562 leukemia. The experiment can be described thus: NCI-60 cell line screen, 48 h.
In the case of `NC(=O)NCCCC(NC(=O)OCCCCn1ccc(=O)[nH]c1=O)C(=O)O` (centres undefined), the TGI was more than 100 µM.
Same read-out and setting: the result for `CCOC(=O)C(SCCO)C(C(=O)OCC)n1cnc2c(=O)[nH]c(NC(C)=O)nc21` (centres undefined) reads more than 100 µM; that for `Cc1ccc([N+](=O)[O-])cc1NC1=NCCO1`, more than 100 µM; that for `Cc1ccc(C(=O)O)cc1S(=O)(=O)Nn1cnc2ccc(S(=O)(=O)Nc3ccccc3C(=O)O)cc2c1=O`, more than 100 µM.
With `Cc1ccc(-c2n[nH]c(=O)n2N2C(=O)c3ccccc3C2=O)cc1`, the TGI was more than 100 µM.
The same measure, in the same setting: the value for `S=C1Nc2ccccc2SC1c1ccccc1` (centres undefined) was more than 100 µM.
The same measure, in the same setting: the result for `CC(C)(C)OC(=O)NCCCCC1NC(=O)[C@@H]2Cc3c([nH]c4ccccc34)C(C3CCCCC3)N2C1=O` (some centres undefined) reads more than 100 µM; that for `CN(C)C(=O)O/N=C1/C(c2c(O)[nH]c3ccccc23)=Nc2ccccc21`, more than 100 µM.
On the same count and under the same terms, the value for `O=[N+]([O-])c1ccc2c(c1)c(OCc1ccccc1)nn2Cc1ccccc1` was more than 100 µM; that for `COc1cc2c(c(OC)c1OC)C(=O)[C@@H]1[C@H]2N1C(N)=O` was more than 100 µM.
`Cc1cc(Cc2cc(C)c(N)cc2N)c(N)cc1N` yielded a TGI of more than 100 µM.
In turn, `C[C@]12CCC(O)CC1=CC[C@@H]1[C@@H]2CC[C@]2(C)C(=O)[C@H](n3ccnc3)C[C@@H]12` (some centres undefined) had a TGI of more than 100 µM.
The same measure, in the same setting: the result for `COC(=O)c1ccccc1CC1Cc2ccc3c(c2C1=O)CCCC3` (centres undefined) reads more than 100 µM; that for `CCOC(=O)C1(C/C=C/CBr)Cc2ccccc2C1=O` (centres undefined), 4.84 µM; that for `COc1ccc(COCCOCc2nc(C#N)c(N)o2)cc1`, more than 100 µM.
Take `N#Cc1c(N2CCCC2)ncn(-c2ccccc2)c1=O`: the TGI was more than 100 µM.
On the same count and under the same terms, the result for `CC1(C)OC(=O)N(c2ccccc2)C12C=Cc1cc([N+](=O)[O-])cc([N+](=O)[O-])c1O2` (centres undefined) reads more than 100 µM.

The subject of the next experiment is MDA-MB-231 breast. The experiment is described as follows: NCI-60 cell line screen, 48 h.
With `NC(=O)NCCCC(NC(=O)OCCCCn1ccc(=O)[nH]c1=O)C(=O)O` (centres undefined), the TGI was more than 100 µM.
`CCOC(=O)C(SCCO)C(C(=O)OCC)n1cnc2c(=O)[nH]c(NC(C)=O)nc21` (centres undefined) registered a TGI of more than 100 µM.
Same read-out and setting: the value for `Cc1ccc([N+](=O)[O-])cc1NC1=NCCO1` was more than 100 µM; that for `Cc1ccc(C(=O)O)cc1S(=O)(=O)Nn1cnc2ccc(S(=O)(=O)Nc3ccccc3C(=O)O)cc2c1=O` was more than 100 µM.
`Cc1ccc(-c2n[nH]c(=O)n2N2C(=O)c3ccccc3C2=O)cc1` showed a TGI of more than 100 µM.
Still for that read-out and setting: the result for `S=C1Nc2ccccc2SC1c1ccccc1` (centres undefined) reads more than 100 µM.
Consider `CC(C)(C)OC(=O)NCCCCC1NC(=O)[C@@H]2Cc3c([nH]c4ccccc34)C(C3CCCCC3)N2C1=O` (some centres undefined), for which the TGI was more than 100 µM.
Still for that read-out and setting: the result for `CN(C)C(=O)O/N=C1/C(c2c(O)[nH]c3ccccc23)=Nc2ccccc21` reads 65 µM; that for `O=[N+]([O-])c1ccc2c(c1)c(OCc1ccccc1)nn2Cc1ccccc1`, more than 100 µM; that for `COc1cc2c(c(OC)c1OC)C(=O)[C@@H]1[C@H]2N1C(N)=O`, more than 100 µM.
Same read-out and setting: the result for `Cc1cc(Cc2cc(C)c(N)cc2N)c(N)cc1N` reads more than 100 µM; that for `C[C@]12CCC(O)CC1=CC[C@@H]1[C@@H]2CC[C@]2(C)C(=O)[C@H](n3ccnc3)C[C@@H]12` (some centres undefined), more than 100 µM.
For the molecule `COC(=O)c1ccccc1CC1Cc2ccc3c(c2C1=O)CCCC3` (centres undefined), the TGI was more than 100 µM.
Same read-out and setting: the result for `CCOC(=O)C1(C/C=C/CBr)Cc2ccccc2C1=O` (centres undefined) reads 28.9 µM; that for `COc1ccc(COCCOCc2nc(C#N)c(N)o2)cc1`, more than 100 µM.
For `N#Cc1c(N2CCCC2)ncn(-c2ccccc2)c1=O`, the TGI was more than 100 µM.
On the same count and under the same terms, the value for `CC1(C)OC(=O)N(c2ccccc2)C12C=Cc1cc([N+](=O)[O-])cc([N+](=O)[O-])c1O2` (centres undefined) was more than 100 µM.

In a further experiment the test system is MDA-MB-435. The experiment is described as follows: NCI-60 cell line screen, 48 h.
`NC(=O)NCCCC(NC(=O)OCCCCn1ccc(=O)[nH]c1=O)C(=O)O` (centres undefined) showed a TGI of more than 100 µM.
On to `CCOC(=O)C(SCCO)C(C(=O)OCC)n1cnc2c(=O)[nH]c(NC(C)=O)nc21` (centres undefined), for which the TGI was more than 100 µM.
Same read-out and setting: the result for `Cc1ccc([N+](=O)[O-])cc1NC1=NCCO1` reads more than 100 µM; that for `Cc1ccc(C(=O)O)cc1S(=O)(=O)Nn1cnc2ccc(S(=O)(=O)Nc3ccccc3C(=O)O)cc2c1=O`, more than 100 µM; that for `Cc1ccc(-c2n[nH]c(=O)n2N2C(=O)c3ccccc3C2=O)cc1`, more than 100 µM.
Still for that read-out and setting: the value for `S=C1Nc2ccccc2SC1c1ccccc1` (centres undefined) was more than 100 µM.
Consider `CC(C)(C)OC(=O)NCCCCC1NC(=O)[C@@H]2Cc3c([nH]c4ccccc34)C(C3CCCCC3)N2C1=O` (some centres undefined), for which the TGI was more than 100 µM.
The same measure, in the same setting: the result for `CN(C)C(=O)O/N=C1/C(c2c(O)[nH]c3ccccc23)=Nc2ccccc21` reads more than 100 µM; that for `O=[N+]([O-])c1ccc2c(c1)c(OCc1ccccc1)nn2Cc1ccccc1`, more than 100 µM; that for `COc1cc2c(c(OC)c1OC)C(=O)[C@@H]1[C@H]2N1C(N)=O`, more than 100 µM.
Same read-out and setting: the value for `Cc1cc(Cc2cc(C)c(N)cc2N)c(N)cc1N` was more than 100 µM; that for `C[C@]12CCC(O)CC1=CC[C@@H]1[C@@H]2CC[C@]2(C)C(=O)[C@H](n3ccnc3)C[C@@H]12` (some centres undefined) was more than 100 µM.
`COC(=O)c1ccccc1CC1Cc2ccc3c(c2C1=O)CCCC3` (centres undefined) displayed a TGI of more than 100 µM.
The molecule `CCOC(=O)C1(C/C=C/CBr)Cc2ccccc2C1=O` (centres undefined) displayed a TGI of 3.19 µM.
For `COc1ccc(COCCOCc2nc(C#N)c(N)o2)cc1`, the TGI was more than 100 µM.
For the molecule `N#Cc1c(N2CCCC2)ncn(-c2ccccc2)c1=O`, the TGI is more than 100 µM.
On the same count and under the same terms, the result for `CC1(C)OC(=O)N(c2ccccc2)C12C=Cc1cc([N+](=O)[O-])cc([N+](=O)[O-])c1O2` (centres undefined) reads more than 100 µM.

The test system of the next experiment is UACC-62 melanoma. The experiment is described as follows: NCI-60 cell line screen, 48 h.
Turning to `NC(=O)NCCCC(NC(=O)OCCCCn1ccc(=O)[nH]c1=O)C(=O)O` (centres undefined), the TGI is more than 100 µM.
Same read-out and setting: the value for `CCOC(=O)C(SCCO)C(C(=O)OCC)n1cnc2c(=O)[nH]c(NC(C)=O)nc21` (centres undefined) was more than 100 µM.
For the molecule `Cc1ccc([N+](=O)[O-])cc1NC1=NCCO1`, the TGI is more than 100 µM.
Consider `Cc1ccc(C(=O)O)cc1S(=O)(=O)Nn1cnc2ccc(S(=O)(=O)Nc3ccccc3C(=O)O)cc2c1=O`, for which the TGI was more than 100 µM.
The same measure, in the same setting: the value for `Cc1ccc(-c2n[nH]c(=O)n2N2C(=O)c3ccccc3C2=O)cc1` was more than 100 µM; that for `S=C1Nc2ccccc2SC1c1ccccc1` (centres undefined) was more than 100 µM; that for `CC(C)(C)OC(=O)NCCCCC1NC(=O)[C@@H]2Cc3c([nH]c4ccccc34)C(C3CCCCC3)N2C1=O` (some centres undefined) was more than 100 µM.
`CN(C)C(=O)O/N=C1/C(c2c(O)[nH]c3ccccc23)=Nc2ccccc21` registered a TGI of 98.6 µM.
On the same count and under the same terms, the result for `O=[N+]([O-])c1ccc2c(c1)c(OCc1ccccc1)nn2Cc1ccccc1` reads more than 100 µM.
The same measure, in the same setting: the result for `COc1cc2c(c(OC)c1OC)C(=O)[C@@H]1[C@H]2N1C(N)=O` reads 68.2 µM; that for `Cc1cc(Cc2cc(C)c(N)cc2N)c(N)cc1N`, more than 100 µM; that for `C[C@]12CCC(O)CC1=CC[C@@H]1[C@@H]2CC[C@]2(C)C(=O)[C@H](n3ccnc3)C[C@@H]12` (some centres undefined), more than 100 µM.
Take `COC(=O)c1ccccc1CC1Cc2ccc3c(c2C1=O)CCCC3` (centres undefined): the TGI was more than 100 µM.
Still for that read-out and setting: the value for `CCOC(=O)C1(C/C=C/CBr)Cc2ccccc2C1=O` (centres undefined) was 5.44 µM; that for `COc1ccc(COCCOCc2nc(C#N)c(N)o2)cc1` was more than 100 µM; that for `N#Cc1c(N2CCCC2)ncn(-c2ccccc2)c1=O` was more than 100 µM.
`CC1(C)OC(=O)N(c2ccccc2)C12C=Cc1cc([N+](=O)[O-])cc([N+](=O)[O-])c1O2` (centres undefined): the TGI is more than 100 µM.
